Assay results as given in paper PMC6934184, “Selective DNA-PKcs inhibition extends the therapeutic index of localized radiotherapy and chemotherapy” (The Journal of Clinical Investigation, 2019).

Target: T1, ACVR1 (ALK2) (Homo sapiens, UniProt Q04771)
T1 construct: purchased Thermo Fisher Scientific (Life Technologies) SelectScreen
Assay: SelectScreen LanthaScreen
Assay type: binding
Settings: read-out: % displacement
How it was run: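 Percent values come from Thermo SelectScreen profiling of NU5455, combining activity and binding assays. CSF1R was run in Z'LYTE format at Km app ATP, and CAMK1 in Adapta format with ATP listed at 10.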

T1 sequence (Q04771 21-509): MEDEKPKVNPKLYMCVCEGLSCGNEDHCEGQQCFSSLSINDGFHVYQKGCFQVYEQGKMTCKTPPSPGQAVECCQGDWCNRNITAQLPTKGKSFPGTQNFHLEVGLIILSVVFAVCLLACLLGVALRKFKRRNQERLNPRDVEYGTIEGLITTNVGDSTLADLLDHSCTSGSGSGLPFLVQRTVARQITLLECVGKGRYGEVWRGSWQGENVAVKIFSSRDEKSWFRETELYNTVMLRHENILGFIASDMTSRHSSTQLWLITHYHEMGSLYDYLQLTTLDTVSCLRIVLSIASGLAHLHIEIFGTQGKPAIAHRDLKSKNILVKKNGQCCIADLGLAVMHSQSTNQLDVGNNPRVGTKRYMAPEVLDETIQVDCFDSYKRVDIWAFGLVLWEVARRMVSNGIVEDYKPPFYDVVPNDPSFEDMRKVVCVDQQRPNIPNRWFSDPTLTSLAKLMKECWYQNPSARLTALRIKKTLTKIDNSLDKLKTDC

CN(C(=O)CN1CCOCC1)c1ccc2sc3c(-c4cccc5c(=O)cc(N6CC7CCC(C6)O7)oc45)cccc3c2c1 [NU5455]
inhibition at 1 µM: 0.7%
